Measured values as given in the NIST ThermoML archive (doi:10.1021/je060271a).
“And” between values parts separate entries of the source, which are not always exact repeats. Equal values may be shown once.

Conditions: 283.15 K, Liquid, Vibrating tube method

CCCCCC(=O)OCC(COC(=O)CCCCC)(COC(=O)CCCCC)COC(=O)CCCCC [pentaerythritol tetrahexanoate]
Conditions | mass density
9284.9 kPa | 1009.6 kg/m3
9306.2 kPa | 1009.5 kg/m3
9324.2 kPa | 1009.5 kg/m3
9341.7 kPa | 1009.5 kg/m3
9359.5 kPa | 1009.5 kg/m3
9380.7 kPa | 1009.4 kg/m3
9398.1 kPa | 1009.6 kg/m3
9416 kPa | 1009.6 kg/m3
9436.7 kPa | 1009.6 kg/m3
9454.6 kPa | 1009.6 kg/m3
9473 kPa | 1009.6 kg/m3
9490.6 kPa | 1009.6 kg/m3
9508.2 kPa | 1009.7 kg/m3
9529 kPa | 1009.7 kg/m3
9546.3 kPa | 1009.7 kg/m3
9563.7 kPa | 1009.7 kg/m3
9585 kPa | 1009.7 kg/m3
9602.4 kPa | 1009.6 kg/m3
9623.6 kPa | 1009.7 kg/m3
9642.2 kPa | 1009.7 kg/m3
9660.2 kPa | 1009.7 kg/m3
9681 kPa | 1009.8 kg/m3
9690.2 kPa | 1009.7 kg/m3
9690.5 kPa | 1009.7 kg/m3
9691 kPa | 1009.8 kg/m3
9691.2 kPa | 1009.9 kg/m3
9691.4 kPa | 1009.8 kg/m3
9691.5 kPa | 1009.7 kg/m3
9691.6 kPa | 1009.8 kg/m3
9691.9 kPa | 1009.7 kg/m3
9692 kPa | 1009.8 kg/m3
9692.1 kPa | 1009.6 kg/m3
9692.4 kPa | 1009.7 kg/m3
9692.6 kPa | 1009.8 kg/m3
9692.8 kPa | 1009.7 kg/m3
9693.3 kPa | 1009.8 kg/m3
9693.4 kPa | 1009.8 kg/m3
9693.8 kPa | 1009.8 kg/m3
9693.9 kPa | 1009.8 kg/m3
9694.3 kPa | 1009.8 kg/m3
9694.5 kPa | 1009.8 kg/m3
9695 kPa | 1009.8 kg/m3
9695.1 kPa | 1009.9 kg/m3
9695.3 kPa | 1009.9 kg/m3
9695.7 kPa | 1009.7 kg/m3 and 1009.8 kg/m3
9695.8 kPa | 1009.9 kg/m3
9696.2 kPa | 1009.8 kg/m3
9696.4 kPa | 1009.8 kg/m3
9696.5 kPa | 1009.8 kg/m3
9696.7 kPa | 1009.8 kg/m3
9696.9 kPa | 1009.8 kg/m3
9697.2 kPa | 1009.8 kg/m3
9697.6 kPa | 1009.8 kg/m3
9698.1 kPa | 1009.5 kg/m3 and 1009.8 kg/m3
9698.2 kPa | 1009.8 kg/m3
9698.3 kPa | 1009.9 kg/m3
9698.9 kPa | 1009.7 kg/m3
9699 kPa | 1009.7 kg/m3
9699.1 kPa | 1009.7 kg/m3
9699.3 kPa | 1009.7 kg/m3
9699.6 kPa | 1009.7 kg/m3
9699.8 kPa | 1009.7 kg/m3 and 1009.9 kg/m3
9700 kPa | 1009.8 kg/m3 and 1009.6 kg/m3
9700.1 kPa | 1009.8 kg/m3 and 1009.7 kg/m3
9700.3 kPa | 1009.7 kg/m3 and 1009.8 kg/m3
9700.7 kPa | 1009.7 kg/m3
9700.8 kPa | 1009.7 kg/m3
9701 kPa | 1009.7 kg/m3
9701.5 kPa | 1009.8 kg/m3 and 1009.7 kg/m3
9701.7 kPa | 1009.8 kg/m3
9754.8 kPa | 1009.8 kg/m3
9769.2 kPa | 1009.7 kg/m3
9783.6 kPa | 1009.8 kg/m3
9797.3 kPa | 1009.7 kg/m3
9814.5 kPa | 1009.7 kg/m3
9828.7 kPa | 1009.8 kg/m3
9845.7 kPa | 1009.7 kg/m3
9859.7 kPa | 1009.8 kg/m3
9874.3 kPa | 1009.8 kg/m3
9888.8 kPa | 1009.8 kg/m3
9905.8 kPa | 1009.8 kg/m3
9919.9 kPa | 1009.9 kg/m3
9934.6 kPa | 1009.9 kg/m3
9951.8 kPa | 1009.9 kg/m3
9966.6 kPa | 1009.9 kg/m3
9984 kPa | 1009.8 kg/m3
9998.7 kPa | 1009.8 kg/m3
10013 kPa | 1009.9 kg/m3
10027 kPa | 1010 kg/m3
10045 kPa | 1009.8 kg/m3
10060 kPa | 1009.9 kg/m3
10074 kPa | 1009.9 kg/m3
10091 kPa | 1010 kg/m3
10106 kPa | 1010 kg/m3
10120 kPa | 1009.9 kg/m3
10135 kPa | 1009.9 kg/m3
10152 kPa | 1010 kg/m3
10166 kPa | 1010 kg/m3
10181 kPa | 1010 kg/m3
10195 kPa | 1010 kg/m3
10212 kPa | 1010.1 kg/m3
10226 kPa | 1010.1 kg/m3
10244 kPa | 1010 kg/m3
10258 kPa | 1010 kg/m3
10273 kPa | 1010 kg/m3
10288 kPa | 1009.9 kg/m3
10305 kPa | 1010.1 kg/m3
10320 kPa | 1010 kg/m3
10334 kPa | 1010.1 kg/m3
10352 kPa | 1010.1 kg/m3
10367 kPa | 1010.2 kg/m3
10382 kPa | 1010.1 kg/m3
10400 kPa | 1010.1 kg/m3
10415 kPa | 1010.2 kg/m3
10430 kPa | 1010.1 kg/m3
10445 kPa | 1010.1 kg/m3
10463 kPa | 1010.2 kg/m3
10478 kPa | 1010.2 kg/m3
10496 kPa | 1010.1 kg/m3
10511 kPa | 1010.2 kg/m3
10526 kPa | 1010.1 kg/m3
10541 kPa | 1010.3 kg/m3
10559 kPa | 1010.2 kg/m3
10575 kPa | 1010.3 kg/m3
10590 kPa | 1010.2 kg/m3
10608 kPa | 1010.2 kg/m3
10622 kPa | 1010.3 kg/m3
10638 kPa | 1010.2 kg/m3
10656 kPa | 1010.3 kg/m3
10671 kPa | 1010.4 kg/m3
10686 kPa | 1010.3 kg/m3
10704 kPa | 1010.4 kg/m3
10719 kPa | 1010.2 kg/m3
10733 kPa | 1010.3 kg/m3
10749 kPa | 1010.2 kg/m3
10766 kPa | 1010.3 kg/m3
10780 kPa | 1010.3 kg/m3
10798 kPa | 1010.3 kg/m3
10812 kPa | 1010.4 kg/m3
10826 kPa | 1010.4 kg/m3
10840 kPa | 1010.4 kg/m3
10858 kPa | 1010.4 kg/m3
10872 kPa | 1010.3 kg/m3
10887 kPa | 1010.4 kg/m3
10904 kPa | 1010.4 kg/m3
